US20180162844A1, “CYCLOPROPANE DERIVATIVE AND DRUG CONTAINING SAME” (EA PHARMA CO., LTD., priority 2015, published 2018)

Biological target: T1, human TRPA1 (Homo sapiens, UniProt O75762)
T1 construct: full-length human TRPA1 gene was amplified; expressed in transfected cells; host or cells: Human embryonic kidney-derived 293T cells, transient transfection with pcDNA3.1/zeo(+) human TRPA1 expression plasmid
Test: Measurement of TRPA1 antagonist activity (intracellular calcium increase, allylisothiocyanate stimulation, 293T cells transfected with human TRPA1 expression plasmid)
Assay type: cell-based
Details: Comparative Examples (Table 8-2); 293T cells expressing human TRPA1, allylisothiocyanate stimulation, FLIPR Calcium4, test substance added 10 min before AITC; read-out: hTRPA1 IC50
Experimental: Experimental Example 1: Measurement of TRPA1 antagonist Activity
Human TRPA1 Expression Plasmid
Using cDNA encoding human TRPA1 (GenBank accession No. NM_007332) (manufactured by Kazusa DNA Research Institute, item No.: FHC07217) as a template, primer 1 (SEQ ID NO: 1) and primer 2 (SEQ ID NO: 2), PCR by PfuUltra High-Fidelity DNA Polymerase (Stratagene) was performed, and full-length human TRPA1 gene was amplified.
A recognition site (underlined) of restriction enzyme HindIII was added to the 5′ end of human TRPA1 gene, and XbaI site (underlined) was added to the 3′ end of human TRPA1 gene, and GTT of the template sequence was changed to termination codon TAG (bold). The obtained double stranded DNA was enzyme-digested with HindIII and XbaI, and introduced into a multicloning site of expression plasmid pcDNA3.1/zeo(+) (manufactured by Invitrogen) to give a human TRPA1 expression plasmid.
Human embryonic kidney-derived 293T cells were cultured in Dulbecco's Modified Eagle Medium containing 10% fetal bovine serum, 10 unit penicillin, and 10 μg streptomycin. One day before assay, 3×10^6 of 293T cells were plated on a petri dish having a diameter of 10 cm, and cultured in a CO2 incubator for 24 hr. OPTI-MEM I Reduced Serum Media (Invitrogen). (600 μL), Mirus TransIT-293 (Mirus Bio) (18 μL), and human TRPA1 expression plasmid (6 μg) were mixed, the total amount of the mixture was added to the cells on the petri dish to allow for gene transfer. The cells were recovered about for 8 hr later, plated on a poly-D-lysine coated 384 well black/clear bottom plate at 12,000 cells/well, and cultured overnight.
Measurement of Intracellular Calcium Increase
The medium was removed from the 384 well plate, calcium indicator (Molecular Device, trade name: FLIPR Calcium4 Assay Kit) dissolved in HBSS (Thermo Fisher Scientific) (pH 7.2) containing 20 mM HEPES was added (38 μL/well), and the cells were stained in a CO2 incubator for 1 hr. The 384 well plate was stood at room temperature for not less than 15 min, set on FDSS7000 (Hamamatsu Photonics K.K.), and a test substance solution was added at 10 μL/well. After 10 min, allylisothiocyanate solution (12 μL/well) was added, the relative fluorescence intensity was measured for 5 min after addition of the allylisothiocyanate solution.
Preparation of Test Substance Solution and Allylisothiocyanate Solution
A test substance solution was prepared to have a composition of HBSS (Thermo Fisher Scientific) (pH 7.2) containing 0.48% dimethyl sulfoxide, a test substance at 4.8-fold concentration of the evaluation concentration, 0.1% bovine serum albumin and 20 mM HEPES. An allylisothiocyanate solution was prepared to have a composition of HBSS (Thermo Fisher Scientific) (pH 7.2) containing 0.1% dimethyl sulfoxide, 100 μM allylisothiocyanate, 0.1% bovine serum albumin and 20 mM HEPES.
Calculation of Antagonist Activity
The activity rate of a test substance at each concentration was calculated, wherein the relative fluorescence intensity change of a well free of a test substance and containing allylisothiocyanate is 100% activity rate, and the relative fluorescence intensity change of a well free of a test substance and allylisothiocyanate is 0% activity rate. The inhibitory rate of a test substance at each concentration was calculated by subtracting the activity rate of the test substance from 100% activity rate, and the concentration of a test substance showing 50% inhibitory rate was calculated as IC50 from the sigmoid approximate curve by XLFit (idbs).

T1 sequence (O75762 whole entry): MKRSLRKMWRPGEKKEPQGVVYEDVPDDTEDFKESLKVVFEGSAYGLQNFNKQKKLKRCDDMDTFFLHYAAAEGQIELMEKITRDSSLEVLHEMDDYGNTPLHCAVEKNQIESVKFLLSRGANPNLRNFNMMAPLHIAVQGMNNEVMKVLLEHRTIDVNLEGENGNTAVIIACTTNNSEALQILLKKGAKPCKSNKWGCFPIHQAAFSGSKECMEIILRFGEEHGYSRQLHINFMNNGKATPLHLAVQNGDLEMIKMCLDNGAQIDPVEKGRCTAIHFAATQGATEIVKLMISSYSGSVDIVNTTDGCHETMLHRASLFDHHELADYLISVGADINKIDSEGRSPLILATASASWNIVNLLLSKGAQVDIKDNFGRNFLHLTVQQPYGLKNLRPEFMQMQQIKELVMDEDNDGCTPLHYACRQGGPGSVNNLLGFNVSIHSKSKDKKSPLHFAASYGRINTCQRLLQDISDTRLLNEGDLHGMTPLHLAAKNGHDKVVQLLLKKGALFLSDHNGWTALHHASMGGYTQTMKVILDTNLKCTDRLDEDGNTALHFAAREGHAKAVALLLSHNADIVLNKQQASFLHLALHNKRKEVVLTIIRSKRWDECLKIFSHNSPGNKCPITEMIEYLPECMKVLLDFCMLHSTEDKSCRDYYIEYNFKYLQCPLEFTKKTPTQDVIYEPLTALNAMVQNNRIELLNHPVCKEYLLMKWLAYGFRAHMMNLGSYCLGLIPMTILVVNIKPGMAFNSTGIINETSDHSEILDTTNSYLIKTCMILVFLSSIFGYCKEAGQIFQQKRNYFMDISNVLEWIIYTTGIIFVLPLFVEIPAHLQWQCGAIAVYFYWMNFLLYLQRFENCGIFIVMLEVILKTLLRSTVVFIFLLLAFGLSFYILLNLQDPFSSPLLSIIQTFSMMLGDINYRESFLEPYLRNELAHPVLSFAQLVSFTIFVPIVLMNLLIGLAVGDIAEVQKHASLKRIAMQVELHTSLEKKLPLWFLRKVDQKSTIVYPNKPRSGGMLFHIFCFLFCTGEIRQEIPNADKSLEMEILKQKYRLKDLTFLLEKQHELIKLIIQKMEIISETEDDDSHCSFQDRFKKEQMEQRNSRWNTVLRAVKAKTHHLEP

Question: Which IC50 does the source give for `O=C(NCc1cc(-c2ccc(C(F)(F)F)cc2)nc(N2CCCC2)c1)C1(NS(=O)(=O)c2ccc(Cl)s2)CC1` [Comparative Example 4, 1-[(5-chloro-2-thienyl)sulfonylamino]-N-[[2-pyrrolidin-1-yl-6-[4-(trifluoromethyl)phenyl]-4-pyridyl]methyl]cyclopropanecarboxamide, reference compound] here?
Answer: > 1000 nM

Question: `O=C(NCc1cc(-c2ccc(C(F)(F)F)cc2)nc(N2CCCC2)c1)C1(NS(=O)(=O)c2ccc(F)cc2)CC1` [Comparative Example 2, 1-[(4-fluorophenyl)sulfonylamino]-N-[[2-pyrrolidin-1-yl-6-[4-(trifluoromethyl)phenyl]-4-pyridyl]methyl]cyclopropanecarboxamide, reference compound] was tested. Which IC50 did it give?
Answer: > 1000 nM

Same assay, conditions: Examples (Table 8-1); 293T cells expressing human TRPA1, allylisothiocyanate stimulation, FLIPR Calcium4, test substance added 10 min before AITC; read-out: hTRPA1 IC50

Question: For `O=C(NCc1cncc(-c2ccc(C(F)(F)F)nc2)c1)C1(NS(=O)(=O)c2cc3cc(F)ccc3o2)CC1` [Example 9, 1-[(5-fluorobenzofuran-2-yl)sulfonylamino]-N-[[5-[6-(trifluoromethyl)-3-pyridyl]-3-pyridyl]methyl]cyclopropane-carboxamide], which IC50 is on record?
Answer: 170 nM

Question: Which IC50 does the source give for `O=C(NCc1cc(-c2ccc(C(F)(F)F)cc2O)ncn1)C1(NS(=O)(=O)c2cc3cc(F)ccc3o2)CC1` [Example 20, 1-[(5-fluorobenzofuran-2-yl)sulfonylamino]-N-[[6-[2-hydroxy-4-(trifluoromethyl)-phenyl]pyrimidin-4-yl]methyl]cyclopropanecarboxamide] here?
Answer: 23 nM

Question: With `O=C(NCc1cc(-c2ccc(C(F)(F)F)cc2)nc(N2CCCC2)c1)C1(NS(=O)(=O)c2cc3ccccc3o2)CC1` [Example 28, 1-(benzofuran-2-ylsulfonylamino)-N-[[2-pyrrolidin-1-yl-6-[4-(trifluoromethyl)phenyl]-4-pyridyl]methyl]-cyclopropanecarboxamide] as the compound, how does the IC50 read?
Answer: 260 nM

Question: Which IC50 does the source give for `CC(C)N(C1(C(=O)NCc2cc(-c3ccc(C(F)(F)F)nc3)ncn2)CC1)S(=O)(=O)c1cc2ccccc2o1` [Example 25, 1-[benzofuran-2-ylsulfonyl(isopropyl)amino]-N-[[6-[6-(trifluoromethyl)-3-pyridyl]pyrimidin-4-yl]methyl]cyclopropanecarboxamide] here?
Answer: 8.1 nM

Question: How did the IC50 turn out when `O=C(NCc1ccnc(-c2cnc(C(F)(F)F)nc2)c1)C1(NS(=O)(=O)c2cc3cc(F)ccc3o2)CC1` [Example 2, 1-[(5-fluorobenzofuran-2-yl)sulfonylamino]-N-[[2-[2-(trifluoromethyl)pyrimidin-5-yl]-4-pyridyl]methyl]cyclopropane-carboxamide] was run?
Answer: 120 nM

Question: `O=C(NCc1cc(-c2cnc(C(F)(F)F)cn2)ccn1)C1(NS(=O)(=O)c2cc3cc(F)ccc3o2)CC1` [Example 7, 1-[(5-fluorobenzofuran-2-yl)sulfonylamino]-N-[[4-[5-(trifluoromethyl)pyrazin-2-yl]-2-pyridyl]methyl]cyclopropane-carboxamide] was tested. Which IC50 did it give?
Answer: 170 nM

Question: Which IC50 does the source give for `O=C(NCc1cc(-c2ccc(C(F)(F)F)nn2)ccn1)C1(NS(=O)(=O)c2cc3cc(F)ccc3o2)CC1` [Example 8, 1-[(5-fluorobenzofuran-2-yl)sulfonylamino]-N-[[4-[6-(trifluoromethyl)pyridazin-3-yl]-2-pyridyl]methyl]cyclopropane-carboxamide] here?
Answer: 74 nM

Question: With `O=C(NCc1cc(-c2ccc(C(F)(F)F)cc2)ncn1)C1(NS(=O)(=O)c2cc3cc(F)ccc3o2)CC1` [Example 1, 1-[(5-fluorobenzofuran-2-yl)sulfonylamino]-N-[[6-[4-(trifluoromethyl)phenyl]pyrimidin-4-yl]methyl]cyclopropanecarboxamide] as the compound, how does the IC50 read?
Answer: 33 nM

Question: For `O=C(NCc1cc(-c2ccc(C(F)(F)F)cn2)cnn1)C1(NS(=O)(=O)c2cc3cc(F)ccc3o2)CC1` [Example 17, 1-[(5-fluorobenzofuran-2-yl)sulfonylamino]-N-[[5-[5-(trifluoromethyl)-2-pyridyl]pyridazin-3-yl]methyl]cyclopropanecarboxamide], which IC50 is on record?
Answer: 240 nM
